# According to PMC4006692 (Journal of biomolecular screening, 2013):
# Tests used:
# HIV-1 Nef dimerization = HIV-1 Nef dimerization (Human immunodeficiency virus type 1 group M subtype B, UniProt P03407); details: up to a final DMSO concentration of 2.5%
# 293T cells = details: final DMSO concentration
# HIV-1 Nef dimerization, sequence (P03407 2-210): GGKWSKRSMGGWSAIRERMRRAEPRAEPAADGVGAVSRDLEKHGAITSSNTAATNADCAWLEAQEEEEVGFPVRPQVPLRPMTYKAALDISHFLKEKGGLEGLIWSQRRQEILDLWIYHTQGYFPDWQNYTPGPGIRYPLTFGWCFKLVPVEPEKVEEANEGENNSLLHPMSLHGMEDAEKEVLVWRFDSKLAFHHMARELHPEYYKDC
smiles,measurement,setting,value
C[S+](C)[O-] [DMSO],BiFC/mRFP ratio of WT2A,HIV-1 Nef dimerization,essentially unchanged
same,IC50 of cell loss (cell density),293T cells,approximately 1%
same,concentration causing cell loss,293T cells,above 0.6%
